From ChEMBL document CHEMBL3991601, “The target landscape of clinical kinase drugs” (Science, 2017)
Active and inactive are the calls of the source.

Legend:
[1] = molecular target: Serine/threonine-protein kinase ATR (Homo sapiens, UniProt Q13535)
[2] = molecular target: Serine/threonine-protein kinase MRCK alpha (Homo sapiens, UniProt Q5VT25)
[3] = molecular target: Serine/threonine-protein kinase MRCK gamma (Homo sapiens, UniProt Q6DT37)
[4] = molecular target: T1, Dual specificity mitogen-activated protein kinase kinase 5 (Homo sapiens, UniProt Q13163)
T1 sequence (Q13163 whole entry): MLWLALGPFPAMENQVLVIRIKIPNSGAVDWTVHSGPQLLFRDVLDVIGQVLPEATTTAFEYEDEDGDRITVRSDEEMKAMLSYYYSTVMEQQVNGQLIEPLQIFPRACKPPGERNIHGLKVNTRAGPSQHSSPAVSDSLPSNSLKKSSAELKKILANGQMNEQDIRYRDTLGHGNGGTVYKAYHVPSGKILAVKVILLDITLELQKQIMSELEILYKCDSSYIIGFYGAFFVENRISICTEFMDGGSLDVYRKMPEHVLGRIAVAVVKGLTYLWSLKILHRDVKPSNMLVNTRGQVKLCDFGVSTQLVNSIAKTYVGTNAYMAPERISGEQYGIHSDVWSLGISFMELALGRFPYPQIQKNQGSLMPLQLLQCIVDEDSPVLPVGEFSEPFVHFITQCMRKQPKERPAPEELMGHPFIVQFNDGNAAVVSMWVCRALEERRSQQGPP

Focal adhesion kinase 1 = Focal adhesion kinase 1 (Homo sapiens, UniProt Q05397)
[5] = molecular target: Receptor-interacting serine/threonine-protein kinase 3 (Homo sapiens, UniProt Q9Y572)
[6] = molecular target: U5 small nuclear ribonucleoprotein 200 kDa helicase (Homo sapiens, UniProt O75643)
[7] = molecular target: Serine/threonine-protein kinase 24 (Homo sapiens, UniProt Q9Y6E0)
[8] = molecular target: T2, Thyroid hormone receptor-associated protein 3 (Homo sapiens, UniProt Q9Y2W1)
T2 sequence (Q9Y2W1 whole entry): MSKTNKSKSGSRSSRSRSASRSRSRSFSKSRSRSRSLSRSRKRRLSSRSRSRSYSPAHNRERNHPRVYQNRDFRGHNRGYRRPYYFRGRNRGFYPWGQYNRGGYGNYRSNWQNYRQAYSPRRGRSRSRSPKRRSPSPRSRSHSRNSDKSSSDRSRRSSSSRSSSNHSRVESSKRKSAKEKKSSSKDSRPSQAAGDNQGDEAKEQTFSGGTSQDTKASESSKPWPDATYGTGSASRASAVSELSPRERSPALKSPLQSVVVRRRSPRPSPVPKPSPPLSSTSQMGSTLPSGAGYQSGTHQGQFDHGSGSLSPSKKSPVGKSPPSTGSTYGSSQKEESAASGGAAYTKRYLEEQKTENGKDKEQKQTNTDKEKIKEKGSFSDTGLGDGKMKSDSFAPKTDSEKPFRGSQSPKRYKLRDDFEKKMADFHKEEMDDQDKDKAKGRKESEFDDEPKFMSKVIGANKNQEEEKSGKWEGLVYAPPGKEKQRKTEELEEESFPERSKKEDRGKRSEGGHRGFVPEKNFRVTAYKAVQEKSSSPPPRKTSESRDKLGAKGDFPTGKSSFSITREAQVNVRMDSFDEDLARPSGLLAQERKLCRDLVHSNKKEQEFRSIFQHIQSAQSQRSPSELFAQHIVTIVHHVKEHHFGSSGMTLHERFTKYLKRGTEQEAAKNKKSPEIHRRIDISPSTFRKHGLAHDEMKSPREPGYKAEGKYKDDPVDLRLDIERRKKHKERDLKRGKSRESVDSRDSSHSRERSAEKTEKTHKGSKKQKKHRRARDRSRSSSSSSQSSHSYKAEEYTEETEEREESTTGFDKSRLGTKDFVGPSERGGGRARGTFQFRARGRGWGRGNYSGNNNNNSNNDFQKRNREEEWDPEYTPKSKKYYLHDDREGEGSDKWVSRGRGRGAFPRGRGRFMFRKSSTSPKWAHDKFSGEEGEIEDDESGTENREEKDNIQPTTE

[9] = molecular target: DNA topoisomerase 2-alpha (Homo sapiens, UniProt P11388)
UMP-CMP kinase = molecular target: T3, UMP-CMP kinase (Homo sapiens, UniProt P30085)
T3 sequence (P30085 whole entry): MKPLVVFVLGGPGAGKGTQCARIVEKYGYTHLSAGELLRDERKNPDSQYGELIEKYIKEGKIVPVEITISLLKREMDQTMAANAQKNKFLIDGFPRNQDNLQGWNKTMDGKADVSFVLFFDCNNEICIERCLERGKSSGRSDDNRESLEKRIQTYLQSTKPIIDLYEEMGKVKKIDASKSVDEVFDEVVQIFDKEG

[10] = molecular target: G protein-coupled receptor kinase 6 (Homo sapiens, UniProt P43250)
[11] = molecular target: Cyclin-dependent kinase 17 (Homo sapiens, UniProt Q00537)
Also: in the data inactive means no Kd found up to 30 µM.

Serine/threonine-protein kinase ATR, sequence (Q13535 whole entry): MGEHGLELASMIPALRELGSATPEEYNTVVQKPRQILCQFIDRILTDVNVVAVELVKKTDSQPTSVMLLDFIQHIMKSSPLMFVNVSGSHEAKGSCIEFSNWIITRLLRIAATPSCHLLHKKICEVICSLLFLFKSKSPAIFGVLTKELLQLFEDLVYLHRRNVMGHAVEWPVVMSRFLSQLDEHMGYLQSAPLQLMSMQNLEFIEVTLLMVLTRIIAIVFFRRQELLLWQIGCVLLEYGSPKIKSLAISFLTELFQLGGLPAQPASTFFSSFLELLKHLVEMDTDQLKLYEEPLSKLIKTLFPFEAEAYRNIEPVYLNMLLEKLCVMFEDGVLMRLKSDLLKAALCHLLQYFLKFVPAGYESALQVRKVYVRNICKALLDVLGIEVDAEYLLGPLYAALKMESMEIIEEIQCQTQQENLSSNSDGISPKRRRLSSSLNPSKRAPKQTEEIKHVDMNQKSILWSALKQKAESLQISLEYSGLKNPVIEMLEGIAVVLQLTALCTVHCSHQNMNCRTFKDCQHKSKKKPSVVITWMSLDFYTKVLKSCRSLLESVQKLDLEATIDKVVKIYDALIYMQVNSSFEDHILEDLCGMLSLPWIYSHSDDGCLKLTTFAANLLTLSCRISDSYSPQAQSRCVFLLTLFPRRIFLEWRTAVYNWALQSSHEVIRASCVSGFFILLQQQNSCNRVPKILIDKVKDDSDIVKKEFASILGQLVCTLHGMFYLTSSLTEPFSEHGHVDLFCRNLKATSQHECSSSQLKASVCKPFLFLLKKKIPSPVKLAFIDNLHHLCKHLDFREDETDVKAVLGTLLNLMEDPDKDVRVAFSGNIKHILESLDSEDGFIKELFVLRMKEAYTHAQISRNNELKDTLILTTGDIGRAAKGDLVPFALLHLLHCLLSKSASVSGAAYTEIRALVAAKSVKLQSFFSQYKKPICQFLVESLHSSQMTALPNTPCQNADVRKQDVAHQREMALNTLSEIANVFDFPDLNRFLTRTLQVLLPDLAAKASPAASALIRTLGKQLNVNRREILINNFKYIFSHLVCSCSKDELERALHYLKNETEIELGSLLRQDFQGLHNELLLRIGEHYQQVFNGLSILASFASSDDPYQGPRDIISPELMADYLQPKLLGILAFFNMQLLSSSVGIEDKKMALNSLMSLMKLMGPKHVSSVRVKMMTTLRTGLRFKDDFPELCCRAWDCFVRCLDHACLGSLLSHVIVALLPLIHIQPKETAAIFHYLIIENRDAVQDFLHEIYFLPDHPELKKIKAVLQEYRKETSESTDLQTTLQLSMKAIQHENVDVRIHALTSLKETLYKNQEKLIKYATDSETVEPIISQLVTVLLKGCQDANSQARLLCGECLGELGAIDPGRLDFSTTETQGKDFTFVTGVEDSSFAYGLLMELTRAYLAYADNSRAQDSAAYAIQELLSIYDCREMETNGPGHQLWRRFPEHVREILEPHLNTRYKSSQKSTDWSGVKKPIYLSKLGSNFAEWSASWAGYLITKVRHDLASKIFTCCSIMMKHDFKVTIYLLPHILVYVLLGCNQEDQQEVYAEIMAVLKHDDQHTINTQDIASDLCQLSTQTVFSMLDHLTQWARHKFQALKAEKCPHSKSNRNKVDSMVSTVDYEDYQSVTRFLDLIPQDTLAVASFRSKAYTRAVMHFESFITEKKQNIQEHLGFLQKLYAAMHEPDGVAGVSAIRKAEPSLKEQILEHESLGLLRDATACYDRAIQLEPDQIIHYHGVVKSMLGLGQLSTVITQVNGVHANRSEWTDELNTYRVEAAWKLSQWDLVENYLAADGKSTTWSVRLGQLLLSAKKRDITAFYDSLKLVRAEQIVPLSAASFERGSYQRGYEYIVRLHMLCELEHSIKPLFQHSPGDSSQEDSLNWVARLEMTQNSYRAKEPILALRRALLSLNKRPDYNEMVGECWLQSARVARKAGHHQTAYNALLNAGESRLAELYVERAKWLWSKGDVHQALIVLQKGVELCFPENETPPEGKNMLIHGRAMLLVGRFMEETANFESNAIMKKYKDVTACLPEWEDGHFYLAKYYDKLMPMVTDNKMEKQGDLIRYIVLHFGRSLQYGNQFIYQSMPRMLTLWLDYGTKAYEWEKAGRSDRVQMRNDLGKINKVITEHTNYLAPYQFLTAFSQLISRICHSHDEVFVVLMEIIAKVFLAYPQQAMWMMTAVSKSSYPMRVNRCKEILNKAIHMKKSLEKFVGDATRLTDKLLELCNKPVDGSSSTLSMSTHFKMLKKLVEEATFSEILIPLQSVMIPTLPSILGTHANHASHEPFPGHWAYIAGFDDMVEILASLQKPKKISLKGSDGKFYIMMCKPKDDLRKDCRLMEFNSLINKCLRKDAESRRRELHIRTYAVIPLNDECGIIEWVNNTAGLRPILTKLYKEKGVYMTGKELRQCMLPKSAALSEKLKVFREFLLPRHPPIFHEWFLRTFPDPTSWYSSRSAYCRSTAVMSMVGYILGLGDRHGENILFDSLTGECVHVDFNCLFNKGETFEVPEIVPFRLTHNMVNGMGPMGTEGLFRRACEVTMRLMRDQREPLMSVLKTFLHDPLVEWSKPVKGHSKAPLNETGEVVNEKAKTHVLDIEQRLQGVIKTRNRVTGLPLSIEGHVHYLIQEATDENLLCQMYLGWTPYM
Serine/threonine-protein kinase MRCK gamma, sequence (Q6DT37 whole entry): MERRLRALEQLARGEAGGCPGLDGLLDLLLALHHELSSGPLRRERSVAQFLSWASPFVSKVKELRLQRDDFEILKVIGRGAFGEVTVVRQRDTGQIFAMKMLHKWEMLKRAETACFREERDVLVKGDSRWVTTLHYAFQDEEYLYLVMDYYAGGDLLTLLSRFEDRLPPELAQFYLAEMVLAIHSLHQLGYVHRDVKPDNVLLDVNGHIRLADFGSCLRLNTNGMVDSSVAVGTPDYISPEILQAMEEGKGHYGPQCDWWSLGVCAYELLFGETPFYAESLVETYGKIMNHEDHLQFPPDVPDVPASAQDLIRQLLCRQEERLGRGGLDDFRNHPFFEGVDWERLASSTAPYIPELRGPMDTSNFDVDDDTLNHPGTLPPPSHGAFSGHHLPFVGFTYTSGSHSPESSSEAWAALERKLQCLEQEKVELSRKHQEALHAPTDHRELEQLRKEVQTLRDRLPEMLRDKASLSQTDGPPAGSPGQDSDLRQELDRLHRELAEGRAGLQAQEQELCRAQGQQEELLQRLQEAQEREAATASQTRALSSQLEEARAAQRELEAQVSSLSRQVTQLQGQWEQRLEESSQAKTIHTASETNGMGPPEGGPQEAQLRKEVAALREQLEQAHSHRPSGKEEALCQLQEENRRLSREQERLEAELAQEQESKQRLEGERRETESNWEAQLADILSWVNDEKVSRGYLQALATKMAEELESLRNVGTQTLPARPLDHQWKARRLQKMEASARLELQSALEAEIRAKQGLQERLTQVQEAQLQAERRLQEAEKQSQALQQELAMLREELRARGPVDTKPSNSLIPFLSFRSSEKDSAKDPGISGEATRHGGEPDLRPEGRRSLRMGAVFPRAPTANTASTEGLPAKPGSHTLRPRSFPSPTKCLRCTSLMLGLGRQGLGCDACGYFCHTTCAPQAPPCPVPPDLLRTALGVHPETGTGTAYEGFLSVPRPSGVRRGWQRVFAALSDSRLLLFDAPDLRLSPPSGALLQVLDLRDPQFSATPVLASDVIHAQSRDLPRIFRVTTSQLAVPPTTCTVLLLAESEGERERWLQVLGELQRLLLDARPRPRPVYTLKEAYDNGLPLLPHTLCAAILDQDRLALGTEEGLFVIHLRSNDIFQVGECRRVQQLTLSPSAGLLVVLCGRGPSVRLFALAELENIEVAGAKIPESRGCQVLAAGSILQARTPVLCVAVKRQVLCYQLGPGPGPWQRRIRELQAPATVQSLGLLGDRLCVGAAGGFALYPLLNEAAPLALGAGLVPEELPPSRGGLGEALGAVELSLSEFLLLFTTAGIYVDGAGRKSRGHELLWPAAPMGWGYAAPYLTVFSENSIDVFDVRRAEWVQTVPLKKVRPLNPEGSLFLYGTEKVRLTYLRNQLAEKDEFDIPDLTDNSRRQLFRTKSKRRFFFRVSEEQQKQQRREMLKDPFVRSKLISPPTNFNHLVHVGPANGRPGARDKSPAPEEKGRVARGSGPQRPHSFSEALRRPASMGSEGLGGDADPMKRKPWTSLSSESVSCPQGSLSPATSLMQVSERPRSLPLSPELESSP
Cyclin-dependent kinase 17, sequence (Q00537 whole entry): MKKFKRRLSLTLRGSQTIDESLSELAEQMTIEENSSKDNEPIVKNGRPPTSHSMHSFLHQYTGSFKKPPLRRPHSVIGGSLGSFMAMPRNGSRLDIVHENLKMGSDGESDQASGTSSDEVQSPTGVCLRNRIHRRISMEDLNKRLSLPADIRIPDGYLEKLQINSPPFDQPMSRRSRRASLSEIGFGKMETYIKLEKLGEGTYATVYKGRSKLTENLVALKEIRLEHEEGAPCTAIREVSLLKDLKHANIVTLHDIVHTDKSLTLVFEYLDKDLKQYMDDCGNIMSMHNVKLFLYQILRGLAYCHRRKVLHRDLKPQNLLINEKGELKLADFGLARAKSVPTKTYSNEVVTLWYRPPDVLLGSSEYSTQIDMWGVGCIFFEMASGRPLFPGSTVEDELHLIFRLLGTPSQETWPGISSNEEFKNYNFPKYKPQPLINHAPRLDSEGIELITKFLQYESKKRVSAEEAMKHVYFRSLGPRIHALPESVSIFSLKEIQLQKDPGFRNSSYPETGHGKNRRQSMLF

SMILES | Kd [1] | Kd [2] | Kd [3] | Kd [4] | Kd (Focal adhesion kinase 1) | Kd [5] | Kd [6] | Kd [7] | Kd [8] | Kd [9] | Kd [10] | Kd [11] | Kd (UMP-CMP kinase)
CCN1CCN(Cc2ccc(Nc3ncc(F)c(-c4cc(F)c5nc(C)n(C(C)C)c5c4)n3)nc2)CC1 [ABEMACICLIB] | > 30 µM (inactive) | > 30 µM (inactive) | > 30 µM (inactive) | > 30 µM (inactive) | > 30 µM (inactive) | > 30 µM (inactive) | > 30 µM (inactive) | > 30 µM (inactive) | > 30 µM (inactive) | > 30 µM (inactive) |  |  | 
NC[C@@](O)(c1ccc(Cl)cc1)c1ccc(-c2cn[nH]c2)cc1 [AT-13148] |  | > 30 µM (inactive) | > 30 µM (inactive) | > 30 µM (inactive) | > 30 µM (inactive) | > 30 µM (inactive) | > 30 µM (inactive) |  | > 30 µM (inactive) | > 30 µM (inactive) |  |  | > 30 µM (inactive)
COc1cc2nccc(Oc3ccc(NC(=O)C4(C(=O)Nc5ccc(F)cc5)CC4)cc3)c2cc1OC [CABOZANTINIB] |  | > 30 µM (inactive) | > 30 µM (inactive) | 2.39 µM (active) | > 30 µM (inactive) | 2.46 µM (active) | > 30 µM (inactive) | > 30 µM (inactive) | > 30 µM (inactive) |  |  | > 30 µM (inactive) | > 30 µM (inactive)
CNC(=O)c1ccc(Nc2ncc(C(F)(F)F)c(NCc3nccnc3N(C)S(C)(=O)=O)n2)cc1 [DEFACTINIB] | > 30 µM (inactive) | > 30 µM (inactive) | > 30 µM (inactive) | > 30 µM (inactive) |  | > 30 µM (inactive) | > 30 µM (inactive) | > 30 µM (inactive) | > 30 µM (inactive) | > 30 µM (inactive) | > 30 µM (inactive) | > 30 µM (inactive) | 
N#CCNC(=O)c1ccc(-c2ccnc(Nc3ccc(N4CCOCC4)cc3)n2)cc1 [MOMELOTINIB] |  |  | > 30 µM (inactive) | > 30 µM (inactive) |  | > 30 µM (inactive) | > 30 µM (inactive) |  |  | > 30 µM (inactive) |  | 1.38 µM | > 30 µM (inactive)
CC1(C)CNc2cc(NC(=O)c3cccnc3NCc3ccncc3)ccc21 [MOTESANIB] |  |  |  |  |  | 1.04 µM (active) | > 30 µM (inactive) |  |  |  | > 30 µM (inactive) |  | > 30 µM (inactive)
CN(c1ncccc1CNc1nc(Nc2ccc3c(c2)CC(=O)N3)ncc1C(F)(F)F)S(C)(=O)=O [PF-00562271] |  |  | > 30 µM (inactive) | > 30 µM (inactive) |  | > 30 µM (inactive) | > 30 µM (inactive) |  |  |  |  | 0.089 µM (active) | > 30 µM (inactive)
CC(C)CC(=O)Nc1[nH]nc2c1CN(C(=O)C1CCN(C)CC1)C2(C)C [PHA-793887] |  | > 30 µM (inactive) | > 30 µM (inactive) | > 30 µM (inactive) |  | > 30 µM (inactive) | > 30 µM (inactive) |  |  | > 30 µM (inactive) | > 30 µM (inactive) |  | > 30 µM (inactive)
O=C(NC[C@H](O)CO)c1ccncc1Nc1ccc(I)cc1F [PIMASERTIB] |  | > 30 µM (inactive) | > 30 µM (inactive) | > 30 µM (inactive) | > 30 µM (inactive) | > 30 µM (inactive) | > 30 µM (inactive) | > 30 µM (inactive) | > 30 µM (inactive) | > 30 µM (inactive) |  | > 30 µM (inactive) | > 30 µM (inactive)
COc1cc(F)c(F)c(Nc2ccc(I)cc2F)c1NS(=O)(=O)C1(C[C@H](O)CO)CC1 [REFAMETINIB] | > 30 µM (inactive) | > 30 µM (inactive) | > 30 µM (inactive) | > 30 µM (inactive) | > 30 µM (inactive) | > 30 µM (inactive) | > 30 µM (inactive) |  | > 30 µM (inactive) |  | > 30 µM (inactive) | > 30 µM (inactive) | 
Cn1cnc2c(F)c(Nc3ccc(Br)cc3Cl)c(C(=O)NOCCO)cc21 [SELUMETINIB] |  |  |  |  |  | > 30 µM (inactive) | > 30 µM (inactive) |  | > 30 µM (inactive) | > 30 µM (inactive) |  |  | > 30 µM (inactive)
O=C(O)c1ccc2c(c1)nc(Nc1cccc(Cl)c1)c1ccncc12 [SILMITASERTIB] | > 30 µM (inactive) | > 30 µM (inactive) | > 30 µM (inactive) | > 30 µM (inactive) | > 30 µM (inactive) | 2.18 µM (active) | > 30 µM (inactive) | > 30 µM (inactive) | > 30 µM (inactive) |  |  | > 30 µM (inactive) | 
CN1CCN(c2nc(C3=C(c4c[nH]c5ccccc45)C(=O)NC3=O)c3ccccc3n2)CC1 [SOTRASTAURIN] | > 30 µM (inactive) | > 30 µM (inactive) | > 30 µM (inactive) | > 30 µM (inactive) | > 30 µM (inactive) | > 30 µM (inactive) | > 30 µM (inactive) | > 30 µM (inactive) |  | > 30 µM (inactive) | > 30 µM (inactive) | > 30 µM (inactive) | 
O[C@H]1CC[C@H](Nc2ncc3nc(Nc4c(F)cc(F)cc4F)n([C@H]4CCOC4)c3n2)CC1 [TANZISERTIB] | > 30 µM (inactive) | > 30 µM (inactive) | > 30 µM (inactive) | > 30 µM (inactive) | > 30 µM (inactive) | > 30 µM (inactive) | > 30 µM (inactive) | > 30 µM (inactive) | > 30 µM (inactive) | > 30 µM (inactive) |  | > 30 µM (inactive) | 
CNC(=O)c1cc(COc2nnc(Nc3ccc(Cl)cc3)c3ccoc23)ccn1 [TELATINIB] | > 30 µM (inactive) |  | > 30 µM (inactive) | > 30 µM (inactive) | > 30 µM (inactive) | > 30 µM (inactive) | > 30 µM (inactive) | > 30 µM (inactive) |  | > 30 µM (inactive) | > 30 µM (inactive) | > 30 µM (inactive) | 
C[C@@H]1COC(Nc2ccc3ncnc(Nc4ccc(OCc5nccs5)c(Cl)c4)c3c2)=N1 [VARLITINIB] | > 30 µM (inactive) | > 30 µM (inactive) | > 30 µM (inactive) | > 30 µM (inactive) | > 30 µM (inactive) | 0.088 µM (active) | > 30 µM (inactive) | > 30 µM (inactive) | > 30 µM (inactive) | > 30 µM (inactive) | > 30 µM (inactive) | > 30 µM (inactive) | 

Continued, in another order:

Kd [1] | Kd [2] | Kd [3] | Kd [4] | Kd (Focal adhesion kinase 1) | Kd [5] | Kd [6] | Kd [7] | Kd [8] | Kd [9] | Kd [10] | Kd [11] | SMILES | Kd (UMP-CMP kinase)
> 30 µM (inactive) |  |  |  |  | > 30 µM (inactive) | > 30 µM (inactive) |  | > 30 µM (inactive) | > 30 µM (inactive) | > 30 µM (inactive) |  | C[C@@]1(C(=O)Nc2ccc(F)nc2)CCCN1c1nc(Nc2cc(C3CC3)n[nH]2)c2cccn2n1 [BMS-754807] | 
> 30 µM (inactive) | > 30 µM (inactive) | > 30 µM (inactive) | > 30 µM (inactive) | > 30 µM (inactive) | 1.7 µM (active) | > 30 µM (inactive) |  | > 30 µM (inactive) | > 30 µM (inactive) | > 30 µM (inactive) | > 30 µM (inactive) | O=C(Nc1ccc(OC(F)(F)F)cc1)c1sccc1NCc1ccnc2ccccc12 [OSI-930] | 
